Test results taken from patent US20250216399A1, “NONSPECIFIC REACTION INHIBITOR” (PHC CORPORATION, priority 2022, published 2025).
Ends that are not written are not given here. PEG 20 kDa = 20 kDa PEG attached through the N-terminal amino group; l = locked nucleic acid (LNA); {C6NH2} = Amino C6 linker; d = 2'-deoxy (DNA); r = 2'-OH (RNA); f = 2'-fluoro

Tests used:
[1] = tested on: human IgG (polyclonal immunoglobulin G) (Homo sapiens); assay: BLI; details: upper case RNA, lower case DNA; 2'-F at U6, U9, C20, U21; LNA at A18; 5' amino C6 linker conjugated to 20 kDa PEG (Jenkem ME); response of IgG on immobilised anti-human IgG antibody with 0.3 mg/mL PEG-aptamer (7.9093 nm without inhibitor); indirect, inhibition of IgG-antibody reaction …
[2] = tested on: human IgA; assay: Reaction inhibitory effect on human IgA, Bio-Layer Interferometry (Octet R2), anti-human IgA antibody and human IgA; format: binding; details: for Response: human IgA, not added 2.1381
Protocol: (§1) As a model system to confirm the non-specific inhibitory effect, an anti-human IgG antibody and human IgG, or an anti-human IgA antibody and human IgA were used, and the reaction inhibitory effect on the IgG-binding peptide or the IgA-binding peptide with smaller molecular weights than antibody fragments, with or without PEG modification, was confirmed.
(§2) The measurements were performed using Bio-Layer Interferometry (BLI) using Octet(trademark) R2 (manufactured by SARTORIUS), which was a biomolecular interaction analysis system. The basic principles of the Bio-Layer Interferometry are briefly explained below. When light of a specific wavelength is projected onto a layer of biomolecules fixed on the surface of a sensor chip, the light is reflected from both the surface of the biomolecular layer and the internal reference layer, resulting in an optical interference wave. When molecules in the measurement sample bind to the biomolecules on the surface of the sensor chip, the thickness of the layer at the tip of the sensor increases, causing a wavelength shift in the interference wave. By measuring this change in wavelength shift, it is possible to quantify and kinetically analyze in real time the number of molecules that bind to the biomolecules immobilized on the sensor chip surface. In this Example, the test sample and a non-specific reaction inhibitor were allowed to coexist in the measurement sample, and human IgG or human IgA was absorbed in the sample solution. The measurements were carried out according to the operating manual attached to the OctetR2.
(§3) As an antibody solution, an anti-human IgA polyclonal rabbit antibody (manufactured by Dako) was diluted with PBS(−) to 25 μg/mL to prepare an anti-human IgA antibody solution. As a sample solution, the test sample was human IgA adjusted to 250 μg/mL in PBS(−), and to 20 μL of this test sample, the IgA-binding peptide or the IgA-binding peptide modified with 20 kDa PEG was added to a final concentration of 25 μg/mL or 50 μg/mL, respectively, and the total volume was adjusted to 200 μL to prepare the R1.
Measurements using OctetR2 were performed in the same manner as for confirming the reaction inhibitory effect on human IgG.

[3] = tested on: human IgG; assay: Reaction inhibitory effect of IgG-binding nucleic acid aptamer on anti-human IgG antibody and human IgG, Bio-Layer Interferometry; details: 0.3 mg/mL; not added 7.9093
Protocol: For nucleic acid aptamers, the reaction inhibitory effect with or without PEG modification was confirmed using a model system to confirm the non-specific inhibitory effect in the same manner as in Example 2.
The test sample and measurements were performed under the same assay conditions as in Example 2. In this Example, the test sample and a non-specific reaction inhibitor were allowed to coexist in the measurement sample, and human IgG was absorbed in the sample solution. The measurements were carried out according to the operating manual attached to the OctetR2.
Anti-human IgG polyclonal rabbit antibody (manufactured by Dako) was diluted with PBS(−) to 25 μg/mL to prepare an anti-human IgG antibody solution. The sample solution used was human IgG at 1 mg/mL in PBS(−), with 20 μL of this test sample, and either the IgG-binding nucleic acid aptamer or the IgG-binding nucleic acid aptamer modified with 20 kDa PEG added to a final concentration of 0.3 mg/mL, and then prepared with reaction buffer (145 mmol/L NaCl, 5.4 mmol/L KCl, 0.8 mmol/L MgCl2, 1.8 mmol/L CaCl2, 20 mmol/L Tris (pH 7.6), 0.05% Tween 20) to make a total volume of 200 μL.

[4] = tested on: human IgG; assay: Reaction inhibitory effect on human IgG, Bio-Layer Interferometry (Octet R2), anti-human IgG antibody and human IgG; format: binding; details: for Response: human IgG, not added 6.6462
Protocol: as §1, §2
as §3, with “IgG” for “IgA”, “1 mg/mL” for “250 μg/mL”, “IgG-binding” for “IgA-binding”, “first reagent (hereinafter referred to as R1) of LPIA Genesis TAT (manufactured by LSI Medience Corporation), which was a thrombin-antithrombin III complex (hereinafter referred to as TAT) measurement reagent.” for “R1.”
The sample solution and the anti-human IgG antibody solution were added to the designated wells of a 96-well black plate (manufactured by Greiner Bio-One) at 200 μL per well. To the baseline, dissociation and washing wells, 200 μL of PBS(−) was added. This plate and a biosensor (Biosensor/ProL: manufactured by SARTRIUS) were placed in the designated positions of the OctetR2. After operating the OctetR2 under the conditions shown in Table 1 below and acquiring data, the wavelength shift change (Response) was calculated using the analysis software included with the OctetR2. The measurements were carried out at a temperature of 30° C.

[5] = tested on: non-specific reaction substance (IgG) of sample A, human plasma; assay: Non-specific reaction inhibitory effect, Bio-Layer Interferometry, sample A (human plasma) against anti-TAT antibody; format: binding
Protocol: The measurement was carried out under the same assay conditions as described in Example 2. In this Example, sample A and a non-specific reaction inhibitor were allowed to coexist in the measurement sample, and the non-specific reaction substances were absorbed in the sample solution.
The antibody solution used was an anti-TAT antibody solution prepared by diluting the anti-TAT antibody used in the second reagent (hereinafter referred to as R2) of LPIA Genesis TAT, which was characterized by containing latex particles to which a monoclonal antibody with specific binding ability to TAT was immobilized, with PBS(−) to a concentration of 25 μg/mL. The sample solution was prepared by adding a final concentration of 25 μg/mL or 50 μg/mL of IgG-binding peptide or 20 kDa PEG-modified IgG-binding peptide as a non-specific reaction inhibitor to 20 μL of the test sample diluted 10-fold with PBS(−), and adjusting the total volume to 200 μL with R1.
Using the same assay conditions as those described in Example 3, the non-specific reaction inhibitory effects of the PEG-modified peptides described in Examples 2 and 3 and the prepared PEG-modified antibody fragment were compared. The amounts of non-specific reaction inhibitor added were 25 μg/mL, 50 μg/mL, 100 μg/mL, 200 μg/mL, or 400 μg/mL, and the test sample was the same as sample A in Example 3.
The assay was carried out under the same conditions as described in Example 3. As non-specific reaction inhibitors, sample solutions were prepared to which PEG-modified peptides chemically modified with 5 kDa, 10 kDa, 20 kDa, and 30 kDa PEG were added, and the non-specific reaction inhibitory effect of each was confirmed. The amounts of non-specific reaction inhibitors added were 5 μg/mL, 10 μg/mL, or 20 μg/mL, and the test sample was the same as Sample A in Examples 3 and 4.

[6] = tested on: non-specific reaction substances of sample A, human plasma; assay: Non-specific inhibitory effect in latex agglutination method on automatic analyzer STACIA (LPIA Genesis TAT)
Protocol: The non-specific inhibitory effect of the IgG-binding peptide and PEG-modified IgG-binding peptide used in Example 2 was confirmed by the latex agglutination method.
The measurements were performed using automated operation of an automatic analyzer, STACIA (manufactured by LSI Medience Corporation). In the STACIA measurement, two main operations were carried out. In the first operation, the sample to be measured was diluted with R1 and heated at 37° C. for 3.5 minutes. In the second operation, R2 was added to the reaction solution and the mixture was incubated at 37° C. for 6 minutes to induce latex agglutination. By optically monitoring the agglutination reaction, the amount of TAT or non-specific reaction substances in the samples to be measured was quantified. In this Example, the non-specific reaction inhibitor was added to R1 so that the concentration after sample addition was 0.05 mg/mL or 0.1 mg/mL, and non-specific reaction substances were absorbed during the first operation. […] The mixture ratio of the measurement sample, R1, and R2 was 20 μL:90 μL:90 μL. Latex agglutination was detected at a wavelength of 700 nm. The measured values were calculated by comparing the absorbance with a calibration curve obtained by measuring TAT of known concentrations. The test sample used was the same as sample A used in Examples 3 to 5.

[7] = molecular target: human IgA (human); assay: BLI (Octet R2) competition: human IgA on immobilised anti-human IgA antibody with 25 µg/mL of the peptide
[8] = molecular target: human IgA (human); assay: BLI (Octet R2) competition: human IgA on immobilised anti-human IgA antibody with 50 µg/mL of the peptide
[9] = amount added 25 μg/mL, not added 5.7733
[10] = amount added 50 μg/mL, not added 5.7733
[11] = amount added 0.05 mg/mL, not added 32.01
[12] = amount added 0.1 mg/mL, not added 27.17

For “GGAGGUGCUCCGAAAGGAACUCC [PEG-modified IgG-binding nucleic acid aptamer]”, the activity [1] was 4.96 nm.

For “IgA-binding peptide: human IgA-binding peptide of approximately 1.8 kDa, amino acid sequence HMVCLSYRGRPVCFSL (SEQ ID NO: 2), reported for purification of human IgA [reference compound]”, the Response ([2]; amount added 25 μg/mL) was 2.1805 nm and the Response ([2]; amount added 50 μg/mL) was 2.2263 nm.

In the case of “IgG-binding nucleic acid aptamer: human IgG-binding nucleic acid aptamer of approximately 7.5 kDa, N(6)_ggAGGU(F)GcU(F)ccgaaaGGA(L)aC(F)U(F)cc (DNA GGAGGUGCUCCGAAAGGAACUCC; sugars from the 5' end ddrrrfrdfddddddrrldffdd, 5' {C6NH2}, backbone and methylation of C not given here; further chemistry not fully specified)”, the “Human IgG (Response)” value [3] is reported as 7.6691 nm.

Work on “IgG-binding peptide: human IgG-binding peptide of approximately 1.5 kDa, amino acid sequence DCAWHLGELVWCT (SEQ ID NO: 1), known for purification of human IgG (human IgG binding peptide) [reference compound]” yielded a Response ([4]; amount added 25 μg/mL) of 7.4221 nm, a Response ([4]; amount added 50 μg/mL) of 7.6293 nm and a Response [5, 9] of 6.5522 nm. The Response [5, 10] was 6.6331 nm, the “Sample A measured value (TAT calibration curve)” value (shortened to “Sample A measured value”) [6, 11] was 37.7 ng/mL and the “Sample A measured value” value [6, 12] was 42.85 ng/mL.

In the case of “PEG-modified IgA-binding peptide: IgA-binding peptide (SEQ ID NO: 2) with one molecule of 20 kDa PEG attached via the N-terminal amino group”, the Response ([2]; amount added 25 μg/mL) is reported as 1.6061 nm, the Response ([2]; amount added 50 μg/mL) is reported as 1.5374 nm and the “reaction inhibitory effect compared with the unmodified peptide” value ([2]; anti-human IgA antibody and human IgA) is reported as “stronger reaction inhibitory effect”.

With “PEG-modified IgG-binding peptide: IgG-binding peptide (SEQ ID NO: 1) with one molecule of 20 kDa PEG attached via the N-terminal amino group ({PEG 20 kDa}-DCAWHLGELVWCT; cysteine pairing not given here)” the Response ([4]; amount added 25 μg/mL) was 3.1484 nm, the Response ([4]; amount added 50 μg/mL) was 2.6181 nm and the “reaction inhibitory effect compared with the unmodified peptide” value ([4]; anti-human IgG antibody and human IgG) was “stronger reaction inhibitory effect”. The “effect in suppressing the non-specific reaction compared with the unmodified peptide” value [5] was “greater effect in suppressing the non-specific reaction than the unmodified peptide”, the “effect on inhibiting non-specific reactions compared with PEG-modified antibody fragment” value ([5]; added in equal amounts) was “greater effect on inhibiting non-specific reactions than the PEG-modified antibody fragment” and the Response ([5]; amount added 5 μg/mL, not added 6.0114) was 5.5469 nm. The Response ([5]; amount added 10 μg/mL, not added 6.0114) was 5.0054 nm, the Response ([5]; amount added 20 μg/mL, not added 6.0114) was 3.8339 nm and the Response [5, 9] was 3.0487 nm. It also gave a Response [5, 10] of 2.9829 nm, a Response ([5]; amount added 100 μg/mL, not added 5.7733) of 3.1926 nm and a Response ([5]; amount added 200 μg/mL, not added 6.0744) of 2.8092 nm. For the same molecule, the Response ([5]; amount added 400 μg/mL, not added 6.0744) was 3.0917 nm, the “Sample A measured value” value [6, 11] was 10.84 ng/mL and the “Sample A measured value” value [6, 12] was 6.25 ng/mL.

B1: IgA-binding peptide modified with 20 kDa PEG (peptide)
peptide: HMVCLSYRGRPVCFSL
modifications: one molecule of 20 kDa PEG (succinimide-activated) attached via the amino group at the N-terminus
B1 gave a Response [nm] [7] of 1.61 nm and a Response [nm] [8] of 1.54 nm.

In the case of HMVCLSYRGRPVCFSL [human IgA-binding peptide of approximately 1.8 kDa], the Response [nm] [7] is reported as 2.18 nm and the Response [nm] [8] is reported as 2.23 nm.
